Test system: 276233-004-R-J1-PDC complex spheroid viability
Experiment: Anticancer human tumor 276233-004-R-J1-PDC patient-derived colon adenocarcinoma cell line growth inhibition [GQUAD]
Conditions: for IC50: curve of first compound; for viability, T/C: stronger effect = lower value
In short: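 Viability of tumor cells grown as complex spheroids with endothelial and stromal cells, exposed to drug combinations. Top concentration at or near clinical Cmax (else 10 microM), diluted in half-log increments.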

[1] = second compound 0.0316 µM, first compound 0.0316 µM
[2] = second compound 0.0316 µM, first compound 0.1 µM
[3] = second compound 0.0316 µM, first compound 0.316 µM
[4] = second compound 0.0316 µM, first compound 1 µM
[5] = second compound 0.0316 µM, first compound 3.16 µM
[6] = second compound 0.0316 µM, first compound 10 µM
[7] = second compound 0.1 µM, first compound 0.0316 µM
[8] = second compound 0.1 µM, first compound 0.1 µM
[9] = second compound 0.1 µM, first compound 0.316 µM
[10] = second compound 0.1 µM, first compound 1 µM
[11] = second compound 0.1 µM, first compound 3.16 µM
[12] = second compound 0.1 µM, first compound 10 µM
[13] = second compound 0.316 µM, first compound 0.0316 µM
[14] = second compound 0.316 µM, first compound 0.1 µM
[15] = second compound 0.316 µM, first compound 0.316 µM
[16] = second compound 0.316 µM, first compound 1 µM
[17] = second compound 0.316 µM, first compound 3.16 µM
[18] = second compound 0.316 µM, first compound 10 µM
[19] = second compound 1 µM, first compound 0.0316 µM
[20] = second compound 1 µM, first compound 0.1 µM
[21] = second compound 1 µM, first compound 0.316 µM
[22] = second compound 1 µM, first compound 1 µM
[23] = second compound 1 µM, first compound 3.16 µM
[24] = second compound 1 µM, first compound 10 µM
[25] = second compound 3.16 µM, first compound 0.0316 µM
[26] = second compound 3.16 µM, first compound 0.1 µM
[27] = second compound 3.16 µM, first compound 0.316 µM
[28] = second compound 3.16 µM, first compound 1 µM
[29] = second compound 3.16 µM, first compound 3.16 µM
[30] = second compound 3.16 µM, first compound 10 µM
[31] = second compound 10 µM, first compound 0.0316 µM
[32] = second compound 10 µM, first compound 0.1 µM
[33] = second compound 10 µM, first compound 0.316 µM
[34] = second compound 10 µM, first compound 1 µM
[35] = second compound 10 µM, first compound 3.16 µM
[36] = second compound 10 µM, first compound 10 µM
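Further: spheroids exposed to drugs for seven days.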
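Wherever viability, T/C is given: 100% = DMSO vehicle control viability.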

For CC(C)(O)C1CCC(Nc2ccc3ncc(-c4cccc(C(F)(F)F)c4)n3n2)CC1 (stereo not drawn) + Cc1[nH]c2ccc(F)cc2c1-c1nc2c3cccnc3c3ncccc3c2[nH]1, the IC50 (second compound 0.0316 µM) was 2150 nM, the IC50 (second compound 0.1 µM) was 922 nM and the IC50 (second compound 0.316 µM) was 558 nM. The IC50 (second compound 1 µM) was less than 31.6 nM, the IC50 (second compound 3.16 µM) was less than 31.6 nM and the IC50 (second compound 10 µM) was less than 31.6 nM. The viability, T/C [1] was 78.5%, the viability, T/C [2] was 68.9% and the viability, T/C [3] was 72.2%. The viability, T/C [4] was 54.3%, the viability, T/C [5] was 46.7% and the viability, T/C [6] was 48.8%. It also gave a viability, T/C [7] of 73.3%, a viability, T/C [8] of 71% and a viability, T/C [9] of 75.6%. It also gave a viability, T/C [10] of 48.2%, a viability, T/C [11] of 42.2% and a viability, T/C [12] of 43.7%. It also gave a viability, T/C [13] of 56.8%, a viability, T/C [14] of 61% and a viability, T/C [15] of 64.2%. It also gave a viability, T/C [16] of 39%, a viability, T/C [17] of 34.8% and a viability, T/C [18] of 40.9%. For the same molecule, the viability, T/C [19] was 46.4%, the viability, T/C [20] was 39.4% and the viability, T/C [21] was 40%. It also gave a viability, T/C [22] of 25.2%, a viability, T/C [23] of 26.6% and a viability, T/C [24] of 24.5%. It also gave a viability, T/C [25] of 17.1%, a viability, T/C [26] of 14.1% and a viability, T/C [27] of 17.6%. It also gave a viability, T/C [28] of 16.2%, a viability, T/C [29] of 10.1% and a viability, T/C [30] of 7.57%. For the same molecule, the viability, T/C [31] was 39.4%, the viability, T/C [32] was 38% and the viability, T/C [33] was 33.9%. It also gave a viability, T/C [34] of 30.9%, a viability, T/C [35] of 13.7% and a viability, T/C [36] of 10.8%.
CCCS(=O)(=O)Nc1ccc(F)c(C(=O)c2c[nH]c3ncc(-c4ccc(Cl)cc4)cc23)c1F + Cc1[nH]c2ccc(F)cc2c1-c1nc2c3cccnc3c3ncccc3c2[nH]1 was tested, and the IC50 (second compound 0.0316 µM) was greater than 10000 nM, the IC50 (second compound 0.1 µM) was greater than 10000 nM and the IC50 (second compound 0.316 µM) was greater than 10000 nM. It also gave an IC50 (second compound 1 µM) of less than 31.6 nM, an IC50 (second compound 3.16 µM) of less than 31.6 nM and an IC50 (second compound 10 µM) of less than 31.6 nM. The viability, T/C [1] was 99.6%, the viability, T/C [2] was 82.8% and the viability, T/C [3] was 83.3%. It also gave a viability, T/C [4] of 101%, a viability, T/C [5] of 78.8% and a viability, T/C [6] of 50.8%. For the same molecule, the viability, T/C [7] was 95.7%, the viability, T/C [8] was 81.7% and the viability, T/C [9] was 80.7%. The viability, T/C [10] was 78.5%, the viability, T/C [11] was 59.7% and the viability, T/C [12] was 61.2%. It also gave a viability, T/C [13] of 74.3%, a viability, T/C [14] of 71.2% and a viability, T/C [15] of 63.9%. For the same molecule, the viability, T/C [16] was 65.3%, the viability, T/C [17] was 55% and the viability, T/C [18] was 61.9%. The viability, T/C [19] was 52.9%, the viability, T/C [20] was 41.3% and the viability, T/C [21] was 44.2%. The viability, T/C [22] was 50.1%, the viability, T/C [23] was 61.9% and the viability, T/C [24] was 37.7%. For the same molecule, the viability, T/C [25] was 18.2%, the viability, T/C [26] was 12.9% and the viability, T/C [27] was 27.3%. It also gave a viability, T/C [28] of 15.5%, a viability, T/C [29] of 20.9% and a viability, T/C [30] of 13.1%. The viability, T/C [31] was 31.9%, the viability, T/C [32] was 35.4% and the viability, T/C [33] was 42.6%. The viability, T/C [34] was 30.3%, the viability, T/C [35] was 41.4% and the viability, T/C [36] was 27.5%.
COc1ncnc(C2CC2)c1-c1ncc2cnn(Cc3ccc(-c4nc(C(F)(F)F)cn4C(C)C)cc3)c2n1 + Cc1[nH]c2ccc(F)cc2c1-c1nc2c3cccnc3c3ncccc3c2[nH]1 gave an IC50 (second compound 0.0316 µM) greater than 10000 nM, an IC50 (second compound 0.1 µM) greater than 10000 nM and an IC50 (second compound 0.316 µM) greater than 10000 nM. The IC50 (second compound 1 µM) was 886 nM, the IC50 (second compound 3.16 µM) was less than 31.6 nM and the IC50 (second compound 10 µM) was less than 31.6 nM. For the same molecule, the viability, T/C [1] was 87.2%, the viability, T/C [2] was 81.3% and the viability, T/C [3] was 79.2%. It also gave a viability, T/C [4] of 76.4%, a viability, T/C [5] of 80.4% and a viability, T/C [6] of 76.2%. For the same molecule, the viability, T/C [7] was 75.5%, the viability, T/C [8] was 79.2% and the viability, T/C [9] was 63.5%. For the same molecule, the viability, T/C [10] was 75.7%, the viability, T/C [11] was 66.6% and the viability, T/C [12] was 71%. For the same molecule, the viability, T/C [13] was 70%, the viability, T/C [14] was 63.3% and the viability, T/C [15] was 83.6%. For the same molecule, the viability, T/C [16] was 53.4%, the viability, T/C [17] was 73% and the viability, T/C [18] was 72%. It also gave a viability, T/C [19] of 58%, a viability, T/C [20] of 42.3% and a viability, T/C [21] of 57.8%. The viability, T/C [22] was 51.4%, the viability, T/C [23] was 48.3% and the viability, T/C [24] was 45.3%. The viability, T/C [25] was 18.7%, the viability, T/C [26] was 16.2% and the viability, T/C [27] was 15.2%. It also gave a viability, T/C [28] of 14.9%, a viability, T/C [29] of 12.7% and a viability, T/C [30] of 20.7%. For the same molecule, the viability, T/C [31] was 34.3%, the viability, T/C [32] was 29.5% and the viability, T/C [33] was 47.7%. The viability, T/C [34] was 31.4%, the viability, T/C [35] was 27.4% and the viability, T/C [36] was 33.6%.
In the case of O=C(NO)c1cnc(N2CCN(S(=O)(=O)c3ccc4ccccc4c3)CC2)nc1 + Cc1[nH]c2ccc(F)cc2c1-c1nc2c3cccnc3c3ncccc3c2[nH]1, the IC50 (second compound 0.0316 µM) is reported as 427 nM, the IC50 (second compound 0.1 µM) is reported as 372 nM and the IC50 (second compound 0.316 µM) is reported as 360 nM. It also gave an IC50 (second compound 1 µM) of 102 nM, an IC50 (second compound 3.16 µM) of less than 31.6 nM and an IC50 (second compound 10 µM) of less than 31.6 nM. For the same molecule, the viability, T/C [1] was 87.1%, the viability, T/C [2] was 86% and the viability, T/C [3] was 66.7%. The viability, T/C [4] was 2.71%, the viability, T/C [5] was 0.44% and the viability, T/C [6] was 0.48%. For the same molecule, the viability, T/C [7] was 83.2%, the viability, T/C [8] was 108% and the viability, T/C [9] was 57.9%. The viability, T/C [10] was 5.03%, the viability, T/C [11] was 0.38% and the viability, T/C [12] was 0.83%. The viability, T/C [13] was 50.4%, the viability, T/C [14] was 71.8% and the viability, T/C [15] was 56.1%. It also gave a viability, T/C [16] of 2.35%, a viability, T/C [17] of 2.07% and a viability, T/C [18] of 0.4%. It also gave a viability, T/C [19] of 58.8%, a viability, T/C [20] of 41.5% and a viability, T/C [21] of 42.8%. The viability, T/C [22] was 3.96%, the viability, T/C [23] was 1.07% and the viability, T/C [24] was 0.62%. The viability, T/C [25] was 17.4%, the viability, T/C [26] was 17% and the viability, T/C [27] was 14.8%. For the same molecule, the viability, T/C [28] was 1.23%, the viability, T/C [29] was 1.33% and the viability, T/C [30] was 0.42%. It also gave a viability, T/C [31] of 26.4%, a viability, T/C [32] of 26.6% and a viability, T/C [33] of 22.1%. It also gave a viability, T/C [34] of 3.12%, a viability, T/C [35] of 1.25% and a viability, T/C [36] of 0.61%.

Reference: PubChem BioAssay AID2060496 (Molecular Pharmacology Branch, DTP, NCI, 2025)
